According to doi:10.1101/2023.10.03.560722, “Drug Discovery in Low Data Regimes: Leveraging a Computational Pipeline for the Discovery of Novel SARS-CoV-2 Nsp14-MTase Inhibitors” (bioRxiv, 2024):
Like-named read-outs stand apart in the source and are kept apart here.

How the values were obtained:
BCDIN3D = biological target: T1, BCDIN3D (Homo sapiens, UniProt Q7Z5W3); test: human MTase selectivity panel; assay type: biochemical
T1 sequence (Q7Z5W3 1-292): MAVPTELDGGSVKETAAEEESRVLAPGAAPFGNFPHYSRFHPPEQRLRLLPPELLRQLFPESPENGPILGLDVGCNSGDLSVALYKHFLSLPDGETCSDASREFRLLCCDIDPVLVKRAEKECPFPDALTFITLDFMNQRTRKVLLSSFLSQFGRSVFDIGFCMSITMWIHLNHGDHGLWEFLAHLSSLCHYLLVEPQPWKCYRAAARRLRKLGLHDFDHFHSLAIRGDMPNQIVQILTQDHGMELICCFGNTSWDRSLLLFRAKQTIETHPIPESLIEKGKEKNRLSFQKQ

SARS-CoV-2 = assay type: cell-based; details: Calu-3 cells, lung epithelial SARS-CoV-2 infection model
PRDM9 = PRDM9 (Homo sapiens, UniProt Q9NQV7); test: human MTase selectivity panel; assay type: biochemical
PRMT8 = PRMT8 (Homo sapiens, UniProt Q9NR22); test: human MTase selectivity panel; assay type: biochemical
Chain of PRMT8 (Q9NR22 whole entry): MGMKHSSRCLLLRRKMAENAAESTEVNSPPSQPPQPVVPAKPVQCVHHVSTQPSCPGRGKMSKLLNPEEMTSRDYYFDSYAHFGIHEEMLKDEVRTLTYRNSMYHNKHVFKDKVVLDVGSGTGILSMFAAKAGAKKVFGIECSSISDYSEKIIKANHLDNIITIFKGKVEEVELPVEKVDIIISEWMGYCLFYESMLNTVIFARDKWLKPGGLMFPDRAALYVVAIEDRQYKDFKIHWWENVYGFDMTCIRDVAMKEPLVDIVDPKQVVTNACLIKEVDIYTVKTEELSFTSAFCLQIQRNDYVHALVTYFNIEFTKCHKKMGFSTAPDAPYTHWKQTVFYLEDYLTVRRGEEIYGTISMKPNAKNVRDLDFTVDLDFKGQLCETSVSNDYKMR

PRMT4 = biological target: T2, PRMT4 (Homo sapiens, UniProt Q86X55); test: human MTase selectivity panel; assay type: biochemical
T2 sequence (Q86X55 1-608): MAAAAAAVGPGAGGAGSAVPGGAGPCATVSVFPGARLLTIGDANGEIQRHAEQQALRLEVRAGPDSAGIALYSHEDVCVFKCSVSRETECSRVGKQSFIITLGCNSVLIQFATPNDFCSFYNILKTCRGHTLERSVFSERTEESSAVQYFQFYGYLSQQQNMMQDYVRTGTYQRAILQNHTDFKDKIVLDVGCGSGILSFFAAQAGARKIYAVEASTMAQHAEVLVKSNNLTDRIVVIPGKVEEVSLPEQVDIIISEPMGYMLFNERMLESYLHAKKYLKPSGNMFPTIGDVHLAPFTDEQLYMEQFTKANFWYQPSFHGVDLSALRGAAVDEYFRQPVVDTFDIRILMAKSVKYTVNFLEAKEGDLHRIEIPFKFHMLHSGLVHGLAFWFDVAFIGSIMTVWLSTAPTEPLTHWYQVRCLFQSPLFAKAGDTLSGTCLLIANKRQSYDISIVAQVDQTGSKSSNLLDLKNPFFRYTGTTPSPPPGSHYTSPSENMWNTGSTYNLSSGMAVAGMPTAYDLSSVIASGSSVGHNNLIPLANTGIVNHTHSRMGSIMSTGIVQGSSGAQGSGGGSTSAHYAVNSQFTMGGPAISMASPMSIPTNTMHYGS

SETD8 = biological target: T3, SETD8 (Homo sapiens, UniProt Q9NQR1); test: human MTase selectivity panel; assay type: biochemical
T3 sequence (Q9NQR1 1-393): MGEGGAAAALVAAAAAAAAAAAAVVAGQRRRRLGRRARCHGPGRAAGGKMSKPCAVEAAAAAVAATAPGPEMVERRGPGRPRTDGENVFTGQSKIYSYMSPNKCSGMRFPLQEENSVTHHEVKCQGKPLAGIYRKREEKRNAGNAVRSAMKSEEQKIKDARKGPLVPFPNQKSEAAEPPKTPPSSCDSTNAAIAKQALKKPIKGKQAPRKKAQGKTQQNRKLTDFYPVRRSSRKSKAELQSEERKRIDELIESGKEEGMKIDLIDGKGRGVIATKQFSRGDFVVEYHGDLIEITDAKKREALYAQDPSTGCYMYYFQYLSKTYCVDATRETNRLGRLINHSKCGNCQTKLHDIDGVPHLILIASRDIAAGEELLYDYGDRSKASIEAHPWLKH

SETD2 = SETD2 (Homo sapiens, UniProt Q9BYW2); test: human MTase selectivity panel; assay type: biochemical
MLL1 = MLL1 (Homo sapiens, UniProt Q03164); test: human MTase selectivity panel; assay type: biochemical
Chain of MLL1 (Q9UBL3 whole entry): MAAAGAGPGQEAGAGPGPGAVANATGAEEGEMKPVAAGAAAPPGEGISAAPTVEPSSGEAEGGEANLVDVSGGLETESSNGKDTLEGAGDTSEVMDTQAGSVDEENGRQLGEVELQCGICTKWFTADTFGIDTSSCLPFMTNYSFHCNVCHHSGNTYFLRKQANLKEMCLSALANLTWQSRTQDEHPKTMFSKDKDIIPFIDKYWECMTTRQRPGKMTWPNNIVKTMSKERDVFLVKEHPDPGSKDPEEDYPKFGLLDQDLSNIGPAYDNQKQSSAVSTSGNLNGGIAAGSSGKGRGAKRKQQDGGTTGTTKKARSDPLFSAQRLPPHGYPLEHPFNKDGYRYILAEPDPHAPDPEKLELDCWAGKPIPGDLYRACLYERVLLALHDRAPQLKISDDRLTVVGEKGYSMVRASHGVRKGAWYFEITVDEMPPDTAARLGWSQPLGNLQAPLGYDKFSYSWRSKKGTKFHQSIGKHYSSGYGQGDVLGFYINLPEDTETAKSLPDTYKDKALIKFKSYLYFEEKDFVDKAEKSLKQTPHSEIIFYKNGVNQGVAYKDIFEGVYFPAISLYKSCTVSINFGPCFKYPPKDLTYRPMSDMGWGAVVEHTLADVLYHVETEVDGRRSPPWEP
Chain of MLL1 (Q15291 whole entry, further chain): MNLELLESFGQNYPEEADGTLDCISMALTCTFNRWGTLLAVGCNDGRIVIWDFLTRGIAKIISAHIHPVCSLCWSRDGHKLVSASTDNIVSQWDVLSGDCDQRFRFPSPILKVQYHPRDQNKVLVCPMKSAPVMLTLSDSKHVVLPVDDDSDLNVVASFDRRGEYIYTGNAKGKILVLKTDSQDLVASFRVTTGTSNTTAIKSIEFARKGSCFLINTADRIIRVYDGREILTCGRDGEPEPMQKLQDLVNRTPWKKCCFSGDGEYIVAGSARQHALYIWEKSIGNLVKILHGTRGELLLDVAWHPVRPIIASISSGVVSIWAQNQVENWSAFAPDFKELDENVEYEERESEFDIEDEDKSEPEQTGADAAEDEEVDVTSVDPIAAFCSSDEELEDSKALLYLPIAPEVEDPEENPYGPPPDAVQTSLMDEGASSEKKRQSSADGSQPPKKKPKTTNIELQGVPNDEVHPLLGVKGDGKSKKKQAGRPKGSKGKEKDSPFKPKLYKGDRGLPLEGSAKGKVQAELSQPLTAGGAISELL
Chain of MLL1 (Q03164 3745-3969): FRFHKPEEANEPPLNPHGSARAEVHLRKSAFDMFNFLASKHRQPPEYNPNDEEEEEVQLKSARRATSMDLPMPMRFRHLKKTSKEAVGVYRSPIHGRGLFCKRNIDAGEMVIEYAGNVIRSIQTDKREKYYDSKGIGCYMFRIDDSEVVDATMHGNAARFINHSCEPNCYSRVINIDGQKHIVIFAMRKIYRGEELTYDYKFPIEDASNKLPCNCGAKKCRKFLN

NSD1 = NSD1 (Homo sapiens, UniProt Q96L73); test: human MTase selectivity panel; assay type: biochemical
Chain of NSD1 (Q96L73 whole entry): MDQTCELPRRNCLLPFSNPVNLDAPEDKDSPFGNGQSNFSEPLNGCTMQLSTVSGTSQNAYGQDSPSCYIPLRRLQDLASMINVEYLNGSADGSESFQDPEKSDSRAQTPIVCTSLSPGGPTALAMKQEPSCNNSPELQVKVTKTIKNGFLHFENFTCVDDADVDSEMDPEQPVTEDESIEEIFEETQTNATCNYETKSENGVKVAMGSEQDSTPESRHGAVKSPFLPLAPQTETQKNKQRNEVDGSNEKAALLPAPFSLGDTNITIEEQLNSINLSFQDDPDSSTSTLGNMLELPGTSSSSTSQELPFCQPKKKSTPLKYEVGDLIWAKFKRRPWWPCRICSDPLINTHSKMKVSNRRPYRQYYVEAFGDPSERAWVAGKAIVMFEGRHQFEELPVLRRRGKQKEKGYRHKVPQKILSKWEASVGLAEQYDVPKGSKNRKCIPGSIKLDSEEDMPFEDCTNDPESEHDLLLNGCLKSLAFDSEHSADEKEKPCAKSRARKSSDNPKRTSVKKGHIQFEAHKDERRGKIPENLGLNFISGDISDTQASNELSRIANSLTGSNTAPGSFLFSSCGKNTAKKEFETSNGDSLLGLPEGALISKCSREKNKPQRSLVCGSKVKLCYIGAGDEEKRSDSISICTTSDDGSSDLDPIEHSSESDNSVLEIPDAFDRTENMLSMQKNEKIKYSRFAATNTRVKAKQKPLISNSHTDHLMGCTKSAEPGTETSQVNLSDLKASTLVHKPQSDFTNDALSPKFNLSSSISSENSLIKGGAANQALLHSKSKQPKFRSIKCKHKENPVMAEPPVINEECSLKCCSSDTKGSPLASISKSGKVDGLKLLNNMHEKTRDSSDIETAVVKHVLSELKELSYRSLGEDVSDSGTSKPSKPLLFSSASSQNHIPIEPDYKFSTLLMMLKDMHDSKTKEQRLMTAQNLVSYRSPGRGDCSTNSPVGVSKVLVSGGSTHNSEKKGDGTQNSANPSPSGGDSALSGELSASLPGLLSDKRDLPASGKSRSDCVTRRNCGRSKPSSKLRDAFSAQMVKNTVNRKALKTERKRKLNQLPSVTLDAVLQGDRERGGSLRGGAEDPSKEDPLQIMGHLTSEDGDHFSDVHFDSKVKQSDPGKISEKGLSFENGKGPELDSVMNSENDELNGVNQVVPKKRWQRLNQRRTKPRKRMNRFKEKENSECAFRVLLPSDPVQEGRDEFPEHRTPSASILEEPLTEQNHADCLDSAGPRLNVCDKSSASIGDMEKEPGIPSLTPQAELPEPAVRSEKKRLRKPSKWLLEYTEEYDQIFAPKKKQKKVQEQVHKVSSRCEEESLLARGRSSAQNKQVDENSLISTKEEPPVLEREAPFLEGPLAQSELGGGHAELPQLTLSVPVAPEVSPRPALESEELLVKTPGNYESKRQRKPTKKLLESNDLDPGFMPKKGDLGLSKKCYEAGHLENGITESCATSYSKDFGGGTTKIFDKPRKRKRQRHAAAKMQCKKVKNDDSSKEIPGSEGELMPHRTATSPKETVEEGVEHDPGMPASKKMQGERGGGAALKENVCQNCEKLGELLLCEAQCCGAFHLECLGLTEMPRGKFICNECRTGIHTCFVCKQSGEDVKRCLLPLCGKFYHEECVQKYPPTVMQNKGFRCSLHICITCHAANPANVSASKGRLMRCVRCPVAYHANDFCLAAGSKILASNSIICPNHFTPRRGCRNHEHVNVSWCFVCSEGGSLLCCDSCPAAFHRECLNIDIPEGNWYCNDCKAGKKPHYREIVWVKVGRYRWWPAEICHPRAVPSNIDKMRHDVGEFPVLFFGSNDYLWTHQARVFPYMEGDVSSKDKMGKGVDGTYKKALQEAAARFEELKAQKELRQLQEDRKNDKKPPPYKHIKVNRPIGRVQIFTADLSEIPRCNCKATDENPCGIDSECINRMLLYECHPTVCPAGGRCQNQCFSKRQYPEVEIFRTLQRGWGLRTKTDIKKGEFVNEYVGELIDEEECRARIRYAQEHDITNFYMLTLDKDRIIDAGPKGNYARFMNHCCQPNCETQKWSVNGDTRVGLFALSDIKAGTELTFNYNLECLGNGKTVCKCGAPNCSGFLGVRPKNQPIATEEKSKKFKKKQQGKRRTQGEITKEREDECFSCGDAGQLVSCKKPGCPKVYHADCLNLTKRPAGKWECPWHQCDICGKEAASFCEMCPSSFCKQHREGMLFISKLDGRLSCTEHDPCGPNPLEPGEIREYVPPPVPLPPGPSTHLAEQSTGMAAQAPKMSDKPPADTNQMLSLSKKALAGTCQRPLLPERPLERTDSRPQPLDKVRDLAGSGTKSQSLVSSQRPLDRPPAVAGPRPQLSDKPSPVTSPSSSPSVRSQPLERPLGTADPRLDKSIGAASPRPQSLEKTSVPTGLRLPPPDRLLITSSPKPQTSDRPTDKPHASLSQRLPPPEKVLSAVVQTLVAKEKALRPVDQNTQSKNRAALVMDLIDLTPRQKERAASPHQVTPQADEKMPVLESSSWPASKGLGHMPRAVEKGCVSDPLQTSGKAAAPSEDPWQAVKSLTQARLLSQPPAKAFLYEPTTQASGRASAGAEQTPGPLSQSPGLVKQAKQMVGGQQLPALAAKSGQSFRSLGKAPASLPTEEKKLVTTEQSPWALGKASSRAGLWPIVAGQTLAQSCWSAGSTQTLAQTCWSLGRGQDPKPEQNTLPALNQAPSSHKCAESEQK

SUV39H2 = SUV39H2 (Homo sapiens, UniProt Q9H5I1); test: human MTase selectivity panel; assay type: biochemical
Chain of SUV39H2 (Q9H5I1 whole entry): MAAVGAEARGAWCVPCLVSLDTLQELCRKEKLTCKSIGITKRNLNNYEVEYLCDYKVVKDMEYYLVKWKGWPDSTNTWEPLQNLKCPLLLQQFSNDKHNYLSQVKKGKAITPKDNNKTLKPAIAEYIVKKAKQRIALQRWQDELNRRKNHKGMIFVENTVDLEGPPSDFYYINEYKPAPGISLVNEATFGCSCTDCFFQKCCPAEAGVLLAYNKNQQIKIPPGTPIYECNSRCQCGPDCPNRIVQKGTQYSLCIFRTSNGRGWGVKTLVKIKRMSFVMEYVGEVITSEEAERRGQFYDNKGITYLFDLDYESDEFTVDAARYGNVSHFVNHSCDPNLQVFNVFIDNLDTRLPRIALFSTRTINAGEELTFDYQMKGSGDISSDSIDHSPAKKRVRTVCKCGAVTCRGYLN

[1] = average ± SD, read-out: Activity (%) at 10 µM Average
[2] = read-out: Activity (%) at 10 µM Replicate 1
[3] = read-out: Activity (%) at 10 µM Replicate 2
[4] = read-out: Activity (%) at 10 µM Replicate 3

Q: What does the source list for `Nc1ncnc2c1ncn2[C@@H]1O[C@H](CSCc2ccc(Cl)cc2)[C@@H](O)[C@H]1O` [NSC620333]?
A: activity at 10 µM (BCDIN3D; [1]): 62 ± 5%; activity at 10 µM (BCDIN3D; [2]): 57%; activity at 10 µM (BCDIN3D; [3]): 66%; activity at 10 µM (BCDIN3D; [4]): 64%; anti-SARS-CoV-2 activity (SARS-CoV-2): demonstrated anti-SARS-CoV-2 activity; activity at 10 µM (PRDM9; [1]): 106 ± 3%; activity at 10 µM (PRDM9; [2]): 110%; activity at 10 µM (PRDM9; [3]): 105%; activity at 10 µM (PRDM9; [4]): 104%; activity at 10 µM (PRMT8; [1]): 96 ± 3%; activity at 10 µM (PRMT8; [2]): 97%; activity at 10 µM (PRMT8; [3]): 99%; activity at 10 µM (PRMT8; [4]): 93%; activity at 10 µM (PRMT4; [1]): 97 ± 3%; activity at 10 µM (PRMT4; [2]): 96%; activity at 10 µM (PRMT4; [3]): 95%; activity at 10 µM (PRMT4; [4]): 101%; activity at 10 µM (SETD8; [1]): 85 ± 6%; activity at 10 µM (SETD8; [2]): 79%; activity at 10 µM (SETD8; [3]): 90%; activity at 10 µM (SETD8; [4]): 86%; activity at 10 µM (SETD2; [1]): 103 ± 4%; activity at 10 µM (SETD2; [2]): 99%; activity at 10 µM (SETD2; [3]): 103%; activity at 10 µM (SETD2; [4]): 107%; activity at 10 µM (MLL1; [1]): 85 ± 2%; activity at 10 µM (MLL1; [2]): 84%; activity at 10 µM (MLL1; [3]): 87%; activity at 10 µM (MLL1; [4]): 84%; activity at 10 µM (NSD1; [1]): 104 ± 2%; activity at 10 µM (NSD1; [2]): 103%; activity at 10 µM (NSD1; [3]): 102%; activity at 10 µM (NSD1; [4]): 107%; activity at 10 µM (SUV39H2; [1]): 103 ± 7%; activity at 10 µM (SUV39H2; [2]): 108%; activity at 10 µM (SUV39H2; [3]): 96%; activity at 10 µM (SUV39H2; [4]): 106%
